Measurements published in the NIST ThermoML archive (doi:10.1021/je049807n).
Numbers after ± are expanded uncertainties.

How the values were obtained:
[1] = xn = mol fraction of the nth substance listed; details: 298.15 K; for surface tension liquid-gas: Pendant drop shape; for mass density: 101.3 kPa, Liquid
[2] = for surface tension liquid-gas: Pendant drop shape; for mass density: 101.33 kPa, Liquid

Cc1ccc(C)c(C)c1 [1,2,4-trimethylbenzene] + CC(C)(C)O
[1]
Details	mass density [kg/m3]	surface tension liquid-gas [mN/m]
x2 = 0.0498	867.42 ± 0.47	–
x2 = 0.1	863.45 ± 0.47	28.12 ± 0.31
x2 = 0.1496	859.56 ± 0.46	–
x2 = 0.2007	855.56 ± 0.46	27 ± 0.3
x2 = 0.2495	851.7 ± 0.45	–
x2 = 0.3001	847.58 ± 0.45	25.92 ± 0.29
x2 = 0.351	843.33 ± 0.45	–
x2 = 0.4002	839.16 ± 0.45	24.93 ± 0.28
x2 = 0.4496	834.81 ± 0.44	–
x2 = 0.5005	830.25 ± 0.44	24.06 ± 0.27
x2 = 0.5494	825.78 ± 0.44	–
x2 = 0.6006	821.1 ± 0.44	23.23 ± 0.26
x2 = 0.6502	816.48 ± 0.45	–
x2 = 0.6991	811.94 ± 0.45	22.46 ± 0.26
x2 = 0.7491	807.12 ± 0.45	–
x2 = 0.7993	802.21 ± 0.45	21.7 ± 0.25
x2 = 0.85	797.46 ± 0.46	–
x2 = 0.9003	791.86 ± 0.46	20.96 ± 0.24
x2 = 0.9499	786.65 ± 0.47	–

Cc1ccc(C)c(C)c1 [1,2,4-trimethylbenzene] + CC(C)CO
[1]
Details	mass density [kg/m3]	surface tension liquid-gas [mN/m]
x2 = 0.0509	868.47 ± 0.37	–
x2 = 0.1004	865.43 ± 0.36	28.42 ± 0.32
x2 = 0.153	862.28 ± 0.35	–
x2 = 0.2018	859.33 ± 0.33	27.54 ± 0.3
x2 = 0.249	856.45 ± 0.32	–
x2 = 0.3002	853.23 ± 0.31	26.7 ± 0.3
x2 = 0.3487	850.09 ± 0.3	–
x2 = 0.3996	846.71 ± 0.29	25.95 ± 0.29
x2 = 0.4494	843.33 ± 0.28	–
x2 = 0.4995	839.86 ± 0.27	25.29 ± 0.28
x2 = 0.5488	836.34 ± 0.26	–
x2 = 0.6002	832.59 ± 0.26	24.72 ± 0.27
x2 = 0.6508	828.75 ± 0.25	–
x2 = 0.6989	824.99 ± 0.24	24.16 ± 0.27
x2 = 0.7484	820.99 ± 0.24	–
x2 = 0.8002	816.62 ± 0.23	23.6 ± 0.26
x2 = 0.8506	812.2 ± 0.23	–
x2 = 0.8984	807.85 ± 0.23	22.98 ± 0.26
x2 = 0.9496	802.94 ± 0.23	–

CC(C)CO [2-methyl-1-propanol]
[2], 298.15 K
Details	mass density [kg/m3]	surface tension liquid-gas [mN/m]
–	797.83 ± 0.23	22.3 ± 0.25

Cc1cc(C)cc(C)c1 [1,3,5-trimethylbenzene] + CCCCO
[1]
Details	mass density [kg/m3]	surface tension liquid-gas [mN/m]
x2 = 0.0493	858.72 ± 0.34	–
x2 = 0.1006	856.4 ± 0.33	27.92 ± 0.31
x2 = 0.1512	854.14 ± 0.32	–
x2 = 0.2011	851.93 ± 0.31	27.65 ± 0.3
x2 = 0.2514	849.67 ± 0.3	–
x2 = 0.3002	847.43 ± 0.29	27.33 ± 0.3
x2 = 0.3487	845.16 ± 0.28	–
x2 = 0.4003	842.68 ± 0.27	26.91 ± 0.29
x2 = 0.4535	840.04 ± 0.27	–
x2 = 0.5001	837.66 ± 0.26	26.46 ± 0.29
x2 = 0.5484	835.11 ± 0.25	–
x2 = 0.6005	832.26 ± 0.25	25.99 ± 0.28
x2 = 0.65	829.43 ± 0.24	–
x2 = 0.6993	826.54 ± 0.24	25.53 ± 0.28
x2 = 0.7497	823.44 ± 0.23	–
x2 = 0.7999	820.23 ± 0.23	25.05 ± 0.27
x2 = 0.85	816.86 ± 0.23	–
x2 = 0.901	813.3 ± 0.22	24.58 ± 0.27
x2 = 0.9506	809.67 ± 0.22	–

Cc1ccc(C)c(C)c1 [1,2,4-trimethylbenzene] + CCC(C)O
[1]
Details	mass density [kg/m3]	surface tension liquid-gas [mN/m]
x2 = 0.0497	868.48 ± 0.37	–
x2 = 0.1008	865.35 ± 0.36	28.58 ± 0.32
x2 = 0.1486	862.53 ± 0.35	–
x2 = 0.201	859.43 ± 0.33	27.94 ± 0.31
x2 = 0.2507	856.46 ± 0.32	–
x2 = 0.2985	853.6 ± 0.31	27.32 ± 0.3
x2 = 0.3492	850.47 ± 0.3	–
x2 = 0.4008	847.25 ± 0.29	26.71 ± 0.29
x2 = 0.4506	844.12 ± 0.28	–
x2 = 0.4997	840.93 ± 0.27	26.15 ± 0.29
x2 = 0.5486	837.68 ± 0.26	–
x2 = 0.6008	834.12 ± 0.25	25.59 ± 0.28
x2 = 0.6505	830.64 ± 0.24	–
x2 = 0.6994	827.12 ± 0.24	25.07 ± 0.27
x2 = 0.7503	823.25 ± 0.23	–
x2 = 0.7999	819.39 ± 0.23	24.56 ± 0.27
x2 = 0.8496	815.42 ± 0.22	–
x2 = 0.9002	811.21 ± 0.22	24.02 ± 0.26
x2 = 0.9489	806.96 ± 0.22	–

Cc1ccc(C)c(C)c1 [1,2,4-trimethylbenzene] + CCCCO
[1]
Details	mass density [kg/m3]	surface tension liquid-gas [mN/m]
x2 = 0.0499	869.1 ± 0.37	–
x2 = 0.1013	866.38 ± 0.36	28.81 ± 0.32
x2 = 0.1492	863.89 ± 0.35	–
x2 = 0.2002	861.22 ± 0.34	28.42 ± 0.31
x2 = 0.2499	858.58 ± 0.32	–
x2 = 0.2992	855.92 ± 0.31	28.04 ± 0.31
x2 = 0.3503	853.09 ± 0.3	–
x2 = 0.4009	850.22 ± 0.29	27.61 ± 0.3
x2 = 0.4491	847.4 ± 0.28	–
x2 = 0.5012	844.25 ± 0.27	27.15 ± 0.29
x2 = 0.5498	841.19 ± 0.26	–
x2 = 0.5985	838.02 ± 0.26	26.65 ± 0.29
x2 = 0.6501	834.53 ± 0.25	–
x2 = 0.6987	831.1 ± 0.24	26.08 ± 0.28
x2 = 0.7499	827.34 ± 0.24	–
x2 = 0.8001	823.46 ± 0.23	25.49 ± 0.28
x2 = 0.8501	819.4 ± 0.23	–
x2 = 0.9002	815.1 ± 0.22	24.86 ± 0.27
x2 = 0.9503	810.56 ± 0.22	–

CC(C)(C)O [2-methylpropan-2-ol]
[2], 298.15 K
Details	mass density [kg/m3]	surface tension liquid-gas [mN/m]
–	780.85 ± 0.25	20.13 ± 0.23

Cc1cc(C)cc(C)c1 [1,3,5-trimethylbenzene]
[2], 298.15 K
Details	mass density [kg/m3]	surface tension liquid-gas [mN/m]
–	861.03 ± 0.35	28.09 ± 0.31

Cc1cc(C)cc(C)c1 [1,3,5-trimethylbenzene] + CCC(C)O
[1]
Details	mass density [kg/m3]	surface tension liquid-gas [mN/m]
x2 = 0.0508	858.12 ± 0.34	–
x2 = 0.101	855.38 ± 0.33	27.77 ± 0.31
x2 = 0.1511	852.75 ± 0.32	–
x2 = 0.2007	850.14 ± 0.31	27.36 ± 0.3
x2 = 0.25	847.61 ± 0.3	–
x2 = 0.2986	845.03 ± 0.29	26.94 ± 0.29
x2 = 0.3488	842.36 ± 0.28	–
x2 = 0.4007	839.55 ± 0.27	26.47 ± 0.29
x2 = 0.4495	836.88 ± 0.26	–
x2 = 0.5017	833.96 ± 0.26	25.99 ± 0.28
x2 = 0.5484	831.33 ± 0.25	–
x2 = 0.6004	828.33 ± 0.24	25.49 ± 0.28
x2 = 0.6508	825.34 ± 0.24	–
x2 = 0.6991	822.4 ± 0.23	24.98 ± 0.27
x2 = 0.7496	819.25 ± 0.23	–
x2 = 0.8009	816.01 ± 0.23	24.45 ± 0.27
x2 = 0.8504	812.75 ± 0.22	–
x2 = 0.9002	809.42 ± 0.22	23.94 ± 0.26
x2 = 0.9505	805.99 ± 0.22	–

Cc1cc(C)cc(C)c1 [1,3,5-trimethylbenzene] + CC(C)(C)O
[1]
Details	mass density [kg/m3]	surface tension liquid-gas [mN/m]
x2 = 0.0502	857.2 ± 0.34	–
x2 = 0.1015	853.43 ± 0.33	27.18 ± 0.3
x2 = 0.1482	850.08 ± 0.32	–
x2 = 0.2007	846.28 ± 0.31	26.24 ± 0.29
x2 = 0.2509	842.63 ± 0.31	–
x2 = 0.2995	839.02 ± 0.3	25.35 ± 0.28
x2 = 0.3484	835.31 ± 0.29	–
x2 = 0.3995	831.37 ± 0.29	24.51 ± 0.27
x2 = 0.449	827.48 ± 0.28	–
x2 = 0.4992	823.4 ± 0.28	23.75 ± 0.27
x2 = 0.5483	819.43 ± 0.27	–
x2 = 0.6005	815.1 ± 0.27	23.02 ± 0.26
x2 = 0.6502	810.91 ± 0.26	–
x2 = 0.6987	806.81 ± 0.26	22.32 ± 0.25
x2 = 0.75	802.48 ± 0.25	–
x2 = 0.7995	798.32 ± 0.25	21.61 ± 0.25
x2 = 0.8501	793.99 ± 0.25	–
x2 = 0.9002	789.58 ± 0.25	20.86 ± 0.24
x2 = 0.9509	785.25 ± 0.25	–

CCC(C)O (configuration not stated) [butan-2-ol]
[2]
Details	mass density [kg/m3]	surface tension liquid-gas [mN/m]
298.15 K	802.34 ± 0.22	23.46 ± 0.26
303.15 K	–	22.14 ± 0.25

CCCCO [butan-1-ol]
[2], 298.15 K
Details	mass density [kg/m3]	surface tension liquid-gas [mN/m]
–	805.8 ± 0.22	24.18 ± 0.27

Cc1cc(C)cc(C)c1 [1,3,5-trimethylbenzene] + CC(C)CO
[1]
Details	mass density [kg/m3]	surface tension liquid-gas [mN/m]
x2 = 0.0512	858.13 ± 0.34	–
x2 = 0.1028	855.39 ± 0.33	27.65 ± 0.3
x2 = 0.1517	852.81 ± 0.32	–
x2 = 0.1994	850.26 ± 0.31	27.21 ± 0.3
x2 = 0.2514	847.49 ± 0.3	–
x2 = 0.3006	844.78 ± 0.29	26.67 ± 0.29
x2 = 0.3529	841.86 ± 0.28	–
x2 = 0.4019	839.03 ± 0.27	26.09 ± 0.29
x2 = 0.4494	836.25 ± 0.27	–
x2 = 0.4995	833.24 ± 0.26	25.51 ± 0.28
x2 = 0.548	830.3 ± 0.25	–
x2 = 0.6002	827.02 ± 0.25	24.88 ± 0.27
x2 = 0.6495	823.78 ± 0.24	–
x2 = 0.699	820.47 ± 0.24	24.25 ± 0.27
x2 = 0.7501	816.96 ± 0.23	–
x2 = 0.7998	813.38 ± 0.23	23.61 ± 0.26
x2 = 0.8504	809.65 ± 0.23	–
x2 = 0.9006	805.81 ± 0.23	22.97 ± 0.26
x2 = 0.9485	802.06 ± 0.23	–

Cc1ccc(C)c(C)c1 [1,2,4-trimethylbenzene]
[2], 298.15 K
Details	mass density [kg/m3]	surface tension liquid-gas [mN/m]
–	871.64 ± 0.39	29.25 ± 0.33
